The values that follow are results of earlier work, collected in US20050239746A1, “Pharmaceutical composition” (priority 2002, published 2005).

The conditions of series [1]: intravenous infusion, 3 g single dose, 8 healthy volunteers.
Series [2] deals with isolated guinea pig trachea. Particulars: 0.1M aqueous solution in 40% w/v 2-hydroxypropyl-beta-cyclodextrin.

In the case of “2-hydroxypropyl-beta-cyclodextrin [Encapsin-HPB]”, the safety and tolerability result in series [1] is “safe and well tolerated”.
Take `CC(C)c1cccc(C(C)C)c1O` [Propofol, 2,6 di-isopropylphenol]: the “muscle relaxant activity compared with the lipid emulsion” value in series [2] was “three times higher”.
